Assay results from patent US20010025053A1, “Use of nitric oxid synthase inhibitors for the treatment of diabetes” (Smith Kline Beecham p.l.c., priority 1997, published 2001).

Test system: obese db/db mouse
Assay: obese db/db mouse model of type 2 non-insulin dependent diabetes
Type: in vivo
Conditions: obese db/db mice
From the text: The obese db/db mouse is a genetic model of type 2 non-insulin dependent diabetes which is both insulin resistant and hyperglycaemic. Male animals were obtained at 6 weeks of age. Blood samples were taken by tail tip snip for measurement of pre-treatment blood glucose. Animals were allocated into treated and control groups such that the mean and standard deviation of the fasting blood glucose concentrations of each group was similar.
On day 0 of the study a group of obese animals and their lean litter mates were killed for measurement of baseline biochemistry and histology. In addition one group of animals (control; n=14) were fed a standard diet and a further group received aminoguanidine (500 mg/kg; n=14) in the same diet. Animals were allowed free access to food and water and their intake measured daily. At weekly intervals 24 hr urine output was also measured. Mice (n=7) were killed at 30 days and 85 days from commencement of treatment. Blood was taken for measurement of glucose and insulin concentrations and the pancreas removed for histological analysis and for measurement of pancreatic insulin.

[1] = from day 63 compared to day 7, FIG. 1

N=C(N)NN [Aminoguanidine, Hydrazinecarboximidamide]
islet morphology (day 30 of treatment, histology): normal islet morphology was preserved | islet insulin content (day 30 of treatment, vs untreated controls): greater | urinary glucose excretion (from day 35, vs untreated, FIG. 1): lower | increase in urine output (polyuria) [1]: prevented | increase in water intake (polydipsia) [1]: prevented | pancreatic insulin content relative to untreated animals (treated vs untreated): twice that of the untreated animals
